Experiments:
RAW264.7 [1] = experiment: Anti-inflammatory activity in mouse RAW264.7 cells assessed as inhibition of LPS-induced prostaglandin E2 production incubated for 48 hrs by ELISA method; format: functional, cell-based; conditions: RAW264.7, 48 h
RAW264.7 [2] = experiment: Anti-inflammatory activity in mouse RAW264.7 cells assessed as inhibition of LPS-induced thromboxane B2 production incubated for 48 hrs by ELISA method; format: functional, cell-based; conditions: RAW264.7, 48 h
HT-29 = experiment: Cytostatic activity against human HT-29 cells incubated for 72 hrs by alamar blue reagent based resazurin metabolism assay; format: functional, cell-based; conditions: HT-29, 72 h
MCF7 = experiment: Cytostatic activity against human MCF7 cells incubated for 6 days by alamar blue reagent based resazurin metabolism assay; format: functional, cell-based; conditions: MCF7, 144 h
RAW264.7 [3] = experiment: Anti-inflammatory activity in mouse RAW264.7 cells assessed as inhibition of LPS-induced thromboxane B2 production at 10 uM incubated for 48 hrs by ELISA method; format: functional; conditions: RAW264.7, 48 h
RAW264.7 [4] = experiment: Anti-inflammatory activity in mouse RAW264.7 cells assessed as inhibition of LPS-induced prostaglandin E2 production at 10 uM incubated for 48 hrs by ELISA method; format: functional; conditions: RAW264.7, 48 h

SMILES | IC50 (RAW264.7 [1]) | IC50 (RAW264.7 [2]) | IC50 (HT-29) | IC50 (MCF7) | inhibition at 10 µM (RAW264.7 [3]) | inhibition at 10 µM (RAW264.7 [4])
C=C1C(=O)O[C@@H]2C[C@](C)(O)C3=CC[C@@](C)(O)[C@@H]3C[C@H]12 | 21.2 µM | 37.5 µM | – | – | – | –
C=C1C(=O)O[C@@H]2C[C@H](C)C3=CC[C@@](C)(O)[C@@H]3C[C@H]12 | 6.5 µM | 17.7 µM | 28.2 µM | 24.2 µM | – | –
C=C1C(=O)O[C@@H]2C[C@H](C)[C@]34O[C@H]3C[C@@](C)(O)[C@@H]4C[C@H]12 | 3 µM | 11.7 µM | 18.6 µM | 12.1 µM | – | –
C=C1C(=O)O[C@@H]2C[C@H](C)[C@]34O[C@H]3C[C@@](C)(OC(C)=O)[C@@H]4C[C@H]12 | 0.7 µM | 6.5 µM | 14.1 µM | 6.9 µM | – | –
C=C1C(=O)O[C@@H]2C[C@H](C)[C@]3(O)[C@@H](C[C@H]12)[C@](C)(OC(C)=O)C[C@@H]3O | 10.5 µM | 34.6 µM | 29.3 µM | 27.2 µM | – | –
C=C1C(=O)O[C@@H]2C[C@H](C)[C@]34O[C@](C)(C[C@@H]3OC(C)=O)[C@@H]4C[C@H]12 | 16.3 µM | 38.6 µM | > 65 µM | > 65 µM | – | –
C=C1C(=O)O[C@@H]2CC(C)=C3CC[C@@](C)(O)[C@@H]3C[C@H]12 | 3.2 µM | 12.9 µM | 18.1 µM | 13.7 µM | – | –
C=C1C(=O)O[C@@H]2CC(C)=C3CC[C@@](C)(OC(C)=O)[C@@H]3C[C@H]12 | 3.5 µM | 2.6 µM | 4.8 µM | 8 µM | – | –
C=C(CO)[C@@H]1CCC(C)=C([C@H](C)CCC(=O)O)C1 | > 79 µM | > 79 µM | > 79 µM | > 79 µM | – | –
C[C@]12CCC(=O)C=C1CC[C@@H]1[C@@H]2[C@@H](O)C[C@@]2(C)[C@H]1CC[C@]2(O)C(=O)CO [HYDROCORTISONE] | – | – | – | – | 42% | 21%
C=C1C(=O)O[C@@H]2C[C@H](C)C(CCC(C)=O)=CC[C@H]12 [TOMENTOSIN] | 7.3 µM | 15.7 µM | 56.5 µM | 26.6 µM | – | –

— ChEMBL document CHEMBL3593199, “Guaianolides and a seco-Eudesmane from the Resinous Exudates of Cushion Bush (Leucophyta brownii) and Evaluation of Their Cytostatic and Anti-inflammatory Activity” (J Nat Prod, 2015)
